Test results published in patent publication US20190343953A1, “ANTI-CANCER TREATMENTS WITH AN ANTI-MUC1 ANTIBODY AND AN ERBB INHIBITOR” (Glycotope GmbH, priority 2017, published 2019).

System: cancer cells
Experiment: Cytotoxicity assay of SeeloMab (PankoMab-ADC), statements for the cancer cells in general
Format: cell-based, human
Settings: pretreated for 3 days vs non-pretreated
Method: The cytotoxic potential of a TA-MUC1 targeting antibody drug conjugate (ADC) was investigated using SeeloMab, the ADC format of PankoMab with a microtubule inhibitor as toxin. Therefore, cells were pre-incubated for 3 days with an optimum concentration of EGFR inhibitor. […] After 3 days the antigen expression was confirmed by flow cytometry and cells were seeded at equal cell density (5000 cells/well) into the wells of a microtiter plate. Cells were incubated with different concentrations of SeeloMab, an isotype matched control ADC and unconjugated PankoMab served as negative control. After 4 days viability of the cells was measured using Celltiter-Glo Luminescent Cell Viability Assay (Promega) and percent proliferation was calculated relative to medium control.

## C#Cc1cccc(Nc2ncnc3cc(OCCOC)c(OCCOC)cc23)c1 [Erlotinib]
  reduction of proliferation by anti-TA-MUC1 ADC when cancer cells were pretreated with EGFR inhibitor: significantly stronger
